In US20110166078A1, “OLIGOSACCHARIDE COMPOUNDS FOR USE IN MOBILISING STEM CELLS” (ENDOTIS PHARMA, priority 2008, published 2011):
pIC50: −log10 of the molar value.

Key:
[1] = target: T1, VEGF-A (Homo sapiens, UniProt P15692); experiment: VEGF-A/heparin competition assay by SPR (Biacore); format: binding; details: 10 nM VEGF-A, biotinylated low molecular weight heparin, Sensorchip SA
T1 sequence (P15692 27-191 isoform P15692-4): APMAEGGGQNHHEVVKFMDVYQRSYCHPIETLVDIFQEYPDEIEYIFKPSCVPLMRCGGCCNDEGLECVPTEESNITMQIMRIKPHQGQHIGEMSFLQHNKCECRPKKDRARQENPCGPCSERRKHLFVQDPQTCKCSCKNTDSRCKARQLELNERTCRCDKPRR
Protocol: (§1) Heparin or low molecular weight heparin (6 kDa) from SIGMA were biotinylated at the reducing end and immobilized on a Biacore sensorchip. Different concentrations of the compounds of the present invention were co-incubated at a fixed concentration of targets: FGF-2, PDGF-β, VEGF-A or SDF-1α for 30 minutes. The mixture was then injected onto the streptavidin control (control reference) and HP surfaces. Only free growth factor (GF) or chemokine, i.e. the target molecules not bound to compounds of the present invention, were trapped on the heparin surface. From the binding of free targets on heparin, the percentages of inhibition were calculated and then reported in function of compound concentrations. The plot was fitted with a four-parameter model and IC50 was calculated. The 0% inhibition value was obtained for the injection of the studied target in running-buffer, and the 100% inhibition value was obtained for the injection of the studied target co-incubated with 10 μM of low molecular weight heparin 6 kDa.
A VEGF-A/heparin competition assay using the Biacore technology was performed using the following conditions: 10 nM VEGF-A, biotinylated low molecular weight heparin, Reference Streptavidin, Sensorchip SA, HBS-P, Regeneration NaCl 2M.
(§2) IC50 values of compounds of the present invention were determined using the Biacore technology for the growth factor and chemokine/heparin competition assays that contained the following proteins: VEGF-A, SDF-1α, FGF-2 and PDGF-β.

[2] = target: SDF-1α (Homo sapiens, UniProt P48061); experiment: SDF-1α/heparin competition assay by SPR (Biacore); format: binding; details: 96 nM SDF-1α, biotinylated low molecular weight heparin (6 kDa), Sensorchip SA
Protocol: as §1
A SDF-1α/heparin competition assay using the Biacore technology was performed using the following conditions: 96 nM SDF-1α, biotinylated low molecular weight heparin (6 kDa), Reference Streptavidin, Sensorchip SA, HBS-P, Regeneration NaCl 2M
as §2

[3] = system: control and VEGF-A-stimulated angiogenesis (endothelial tubules, HUVEC/NHDF co-culture); experiment: In vitro angiogenesis assay (endothelial tubule formation, AngioKit); format: cell-based, human; details: 30 μM compound; anti-CD31 ELISA and AngioSys image analysis; FIGS. 13-15
Description: These experiments are also known as endothelial tubule formation assays and they are used to evaluate the compound effects on in vitro angiogenesis (the neo-formation of blood vessels from pre-existing ones). This process is critical in tumour development as bloodstream brings all the necessary nutrients and oxygen to cancer cells.
The assay uses a commercially available product (AngioKit) specially designed for screening experiments. The product consists of a 24 or 96-well culture plate containing endothelial and fibroblast cells. A similar assay has been developed “in-house” using 48-well culture plates.
Endothelial cells will, on a ten-day period, develop into a branched network of endothelial tubules or “primitive” blood vessels. This process requires a co-culture with fibroblasts, these latter cells secreting essential growth factors for endothelial cells. At the end of the incubation period (about ten days), angiogenesis is monitored both by ELISA and image analysis software quantifying different blood vessel parameters (number and average length of tubules, field area, number of junctions for example). All reagents and material (except the oligosaccharide compounds, the VEGF-A and the 48-well plate AngioKits) are bought from TCS CellWorks (http://www.tcscellworks.co.uk) which provides: • 24 and 96-well plate AngioKits (including culture medium) • Anti-CD31 (a cell marker specifically expressed on endothelial cells) reagents for ELISA and tubule staining procedures. • AngioSys image analysis software
For home-made 48-well plate AngioKits, NHDF and HUVEC cells were independently purchased while TCS CellWorks culture medium and protocol were used.
The cell medium is replaced with fresh one (day 1) and cells are incubated at 37° C. with the compounds of interest (oligosaccharides and/or angiogenic proteins, such as growth factors). During the course of the experiment, the culture medium (including oligosaccharides and/or angiogenic proteins) is replaced at days 4 and 7.
At day 10, the assay is terminated by the labelling of endothelial cells by an ELISA procedure (indirect colorimetric titration of the endothelial cell number through dosage of the endothelial-specific CD31 marker) and the staining of endothelial tubules. Photographs of stained tubules are taken and analysed with the AngioSys image analysis software.
In the following assay the effects of compounds 239, 240, 246, 247, 248, 249, 252, 254, 255 and 257 on in vitro angiogenesis were measured (all compounds were added at the 30 μM concentration). […] For the data presented in FIG. 13, AngioSys image analyses are shown on FIG. 14. Photographs of endothelial tubules are shown on the side of the anti-CD31 ELISA (see FIGS. 13 and 15).

[4] = target: T2, heparanase (Homo sapiens, UniProt Q9Y251); experiment: Anti-heparanase activity (fondaparinux degradation / factor Xa chromogenic assay); format: biochemical
T2 sequence (Q9Y251 158-543 limits assumed): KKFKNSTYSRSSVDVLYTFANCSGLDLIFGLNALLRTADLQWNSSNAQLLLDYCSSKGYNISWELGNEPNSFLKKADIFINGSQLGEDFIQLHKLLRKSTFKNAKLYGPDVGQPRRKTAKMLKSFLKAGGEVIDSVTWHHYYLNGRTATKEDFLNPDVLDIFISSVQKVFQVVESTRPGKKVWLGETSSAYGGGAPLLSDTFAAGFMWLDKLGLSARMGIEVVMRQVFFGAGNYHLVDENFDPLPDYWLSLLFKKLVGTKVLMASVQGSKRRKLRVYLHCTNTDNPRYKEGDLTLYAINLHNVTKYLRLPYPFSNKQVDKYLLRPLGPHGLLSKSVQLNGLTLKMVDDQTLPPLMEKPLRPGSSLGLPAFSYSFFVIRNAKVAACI
T2 sequence (Q9Y251 36-109 limits assumed): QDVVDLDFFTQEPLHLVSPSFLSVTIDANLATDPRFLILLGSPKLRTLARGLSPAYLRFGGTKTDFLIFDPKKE
Protocol: To determine the compounds IC50 values for the heparanase target, we adapted an assay based on the ability of heparanase to degrade fondaparinux (Sanofi patent No. 287 3377 FR), and the capacity of fondaparinux to inhibit factor Xa activity via AT III binding. This assay was carried out on a STA Compact robot (Diagnostica Stago). Briefly, different concentrations of compounds were added to a mixture containing the heparanase enzyme and fondaparinux and after a time-fixed incubation period, AT III, Factor Xa and a chromogenic substrate (CBS 31.39) were sequentially added to the reaction mix. Production of paranitroanilin resulting from the degradation of the chromogenic substrate CBS 31.39 was monitored at 405 nm. Data obtained for the different concentration points were plotted using a four-parameter fit model and IC50 determined.

| SMILES | pIC50 [1] | pIC50 [2] | inhibition of control and/or VEGF-A-stimulated angiogenesis [3] | pIC50 [4] |
| --- | --- | --- | --- | --- |
| C#CCCCOC1OC(COS(=O)(=O)[O-])C(OC2OC(C(=O)[O-])C(OC3OC(COS(=O)(=O)[O-])C(OC4OC(C(=O)[O-])C(OC5OC(COS(=O)(=O)[O-])C(OC6OC(C(=O)[O-])C(OCc7ccccc7)C(OCc7ccccc7)C6OS(=O)(=O)[O-])C(OCc6ccccc6)C5NS(=O)(=O)[O-])C(OCc5ccccc5)C4OS(=O)(=O)[O-])C(OCc4ccccc4)C3NS(=O)(=O)[O-])C(OCc3ccccc3)C2OS(=O)(=O)[O-])C(OCc2ccccc2)C1NS(=O)(=O)[O-].[Na+].[Na+].[Na+].[Na+].[Na+].[Na+].[Na+].[Na+].[Na+].[Na+].[Na+].[Na+] (centres unmarked) [Compound 239] | 8.28 | 7.37 | inhibition of control and/or VEGF-A-stimulated angiogenesis | 8.04 |
| C#CCCCOC1OC(COS(=O)(=O)[O-])C(OC2OC(C(=O)[O-])C(OC3OC(COS(=O)(=O)[O-])C(OC4OC(C(=O)[O-])C(OC5OC(COS(=O)(=O)[O-])C(OC6OC(C(=O)[O-])C(OC7OC(COS(=O)(=O)[O-])C(OC8OC(C(=O)[O-])C(OCc9ccccc9)C(OCc9ccccc9)C8OS(=O)(=O)[O-])C(OCc8ccccc8)C7NS(=O)(=O)[O-])C(OCc7ccccc7)C6OS(=O)(=O)[O-])C(OCc6ccccc6)C5NS(=O)(=O)[O-])C(OCc5ccccc5)C4OS(=O)(=O)[O-])C(OCc4ccccc4)C3NS(=O)(=O)[O-])C(OCc3ccccc3)C2OS(=O)(=O)[O-])C(OCc2ccccc2)C1NS(=O)(=O)[O-].[Na+].[Na+].[Na+].[Na+].[Na+].[Na+].[Na+].[Na+].[Na+].[Na+].[Na+].[Na+].[Na+].[Na+].[Na+].[Na+] (centres unmarked) [Compound 240] | 8.32 | 7.64 | inhibition of control and/or VEGF-A-stimulated angiogenesis | 9.38 |
